For one assay, the target named is T1, Human GIPr (Homo sapiens, UniProt P48546).
T1 construct: expressed in transfected cells
T1 sequence (P48546 22-466): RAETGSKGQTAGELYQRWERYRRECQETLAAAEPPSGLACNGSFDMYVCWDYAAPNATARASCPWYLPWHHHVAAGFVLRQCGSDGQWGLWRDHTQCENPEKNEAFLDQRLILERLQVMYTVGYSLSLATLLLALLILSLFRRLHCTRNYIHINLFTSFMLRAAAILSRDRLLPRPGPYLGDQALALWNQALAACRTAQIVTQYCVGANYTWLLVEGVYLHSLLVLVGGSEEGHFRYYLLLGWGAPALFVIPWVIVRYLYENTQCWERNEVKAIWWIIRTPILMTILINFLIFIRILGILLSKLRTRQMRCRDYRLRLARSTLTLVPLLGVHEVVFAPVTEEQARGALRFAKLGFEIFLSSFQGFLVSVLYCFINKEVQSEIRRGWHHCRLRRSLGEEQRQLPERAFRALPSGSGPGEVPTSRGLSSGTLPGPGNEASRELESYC
Nature of the assay: cAMP activity assay in assay medium (assay 1). In kind it is cell-based. The note with it: assay medium; Table 4; read-out: hGIPR EC50. The source says:
(§1) Biological Activity of Peptides in Cell-Based cAMP Activity Assay (Assay 1):
(§2) All sample dilutions were made in duplicate.

In a further assay the target is Human GLP1R (Homo sapiens, UniProt P43220). Nature of the assay: cAMP activity assay in assay medium (assay 1). In kind it is cell-based. The arrangement: expressed in transfected cells. The note with it: assay medium; Table 4; read-out: hGLP1R EC50.
Description: as §1, §2

The values below come from patent US20200354426A1 (MEDIMMUNE LIMITED, priority 2016, published 2020).

The structures appear in SMILES notation. Numbered stars: 1 amine (or outer) side, 2 acyl side, 3 side chain; on linkers, the order of the positions; unused ones are H or OH. Side chains are listed from the residue outwards. Peptide text beside a SMILES is read from it. * marks the point of attachment. γGlu = O=C(O)[C@H](CCC(=O)[*:2])N[*:1]; Palmitoyl = CCCCCCCCCCCCCCCC(=O)*

Sequence of Human GLP1R (P43220 24-463): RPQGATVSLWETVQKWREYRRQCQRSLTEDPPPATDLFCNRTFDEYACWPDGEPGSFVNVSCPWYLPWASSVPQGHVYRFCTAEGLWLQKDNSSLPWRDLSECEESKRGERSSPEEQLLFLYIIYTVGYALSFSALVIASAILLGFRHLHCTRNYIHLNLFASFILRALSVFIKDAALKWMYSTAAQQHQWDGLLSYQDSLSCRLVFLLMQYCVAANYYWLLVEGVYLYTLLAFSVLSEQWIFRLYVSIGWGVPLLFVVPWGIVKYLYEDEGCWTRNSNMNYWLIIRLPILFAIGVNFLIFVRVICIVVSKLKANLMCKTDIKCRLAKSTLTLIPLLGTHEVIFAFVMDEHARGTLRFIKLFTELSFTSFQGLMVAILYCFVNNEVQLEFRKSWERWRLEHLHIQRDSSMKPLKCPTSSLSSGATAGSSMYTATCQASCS

On to `CCCCCCCCCCCCCCCC(=O)N[C@@H](CCC(=O)NCCCC[C@H](NC(=O)[C@H](CC(=O)O)NC(=O)[C@H](CO)NC(=O)[C@@H](NC(=O)[C@H](Cc1ccccc1)NC(=O)[C@@H](NC(=O)CNC(=O)[C@H](CCC(N)=O)NC(=O)[C@H](CO)NC(=O)[C@@H](N)Cc1c[nH]cn1)[C@@H](C)O)[C@@H](C)O)C(=O)N[C@@H](CO)C(=O)N[C@@H](CCCCN)C(=O)N[C@@H](Cc1ccc(O)cc1)C(=O)N[C@@H](CC(C)C)C(=O)N[C@@H](CC(=O)O)C(=O)N[C@@H](CO)C(=O)N[C@@H](CCCNC(=N)N)C(=O)N[C@@H](CCCNC(=N)N)C(=O)N[C@@H](C)C(=O)N[C@@H](CCC(N)=O)C(=O)N[C@@H](CC(=O)O)C(=O)N[C@@H](Cc1ccccc1)C(=O)N[C@H](C(=O)N[C@@H](CCC(N)=O)C(=O)N[C@@H](Cc1c[nH]c2ccccc12)C(=O)N[C@@H](CC(C)C)C(=O)N[C@@H](CCC(=O)O)C(=O)N[C@@H](C)C(=O)NCC(=O)NCC(N)=O)C(C)C)C(=O)O` [g717] (H-HSQGTFTSDK([γGlu-Palmitoyl])SKYLDSRRAQDFVQWLEAGG-NH2; N-terminus assumed), for which the EC50 is 1.48 nM at Human GIPr and 0.00577 nM on Human GLP1R.

As to `CCCCCCCCCCCCCCCC(=O)N[C@@H](CCC(=O)NCCCC[C@H](NC(=O)[C@H](Cc1ccc(O)cc1)NC(=O)[C@H](CCCCN)NC(=O)[C@H](CO)NC(=O)[C@H](Cc1ccc(O)cc1)NC(=O)[C@H](CC(=O)O)NC(=O)[C@H](CO)NC(=O)[C@@H](NC(=O)[C@H](Cc1ccccc1)NC(=O)[C@@H](NC(=O)CNC(=O)[C@H](CCC(N)=O)NC(=O)[C@H](CO)NC(=O)[C@@H](N)Cc1c[nH]cn1)[C@@H](C)O)[C@@H](C)O)C(=O)N[C@@H](CC(=O)O)C(=O)N[C@@H](CO)C(=O)N[C@@H](CCCNC(=N)N)C(=O)N[C@@H](CCCNC(=N)N)C(=O)N[C@@H](C)C(=O)N[C@@H](CCCNC(=N)N)C(=O)N[C@@H](CC(=O)O)C(=O)N[C@@H](Cc1ccccc1)C(=O)N[C@H](C(=O)N[C@@H](C)C(=O)N[C@@H](Cc1c[nH]c2ccccc12)C(=O)N[C@@H](CC(C)C)C(=O)N[C@@H](CCC(=O)O)C(=O)N[C@@H](C)C(=O)NCC(=O)NCC(N)=O)C(C)C)C(=O)O` [g780] (H-HSQGTFTSDYSKYK([γGlu-Palmitoyl])DSRRARDFVAWLEAGG-NH2; N-terminus assumed), the EC50 at Human GIPr stood at 64 nM; at Human GLP1R, 0.012 nM.

As to `CCCCCCCCCCCCCCCC(=O)N[C@@H](CCC(=O)NCCCC[C@H](NC(=O)[C@H](CC(=O)O)NC(=O)[C@H](CO)NC(=O)[C@@H](NC(=O)[C@H](Cc1ccccc1)NC(=O)[C@@H](NC(=O)CNC(=O)[C@H](CCC(N)=O)NC(=O)[C@H](CO)NC(=O)[C@@H](N)Cc1c[nH]cn1)[C@@H](C)O)[C@@H](C)O)C(=O)N[C@@H](CO)C(=O)N[C@@H](CCCCN)C(=O)N[C@@H](Cc1ccc(O)cc1)C(=O)N[C@@H](CC(C)C)C(=O)N[C@@H](CC(=O)O)C(=O)N[C@@H](CO)C(=O)N[C@@H](CCC(=O)O)C(=O)N[C@@H](CCCNC(=N)N)C(=O)N[C@@H](C)C(=O)N[C@@H](CCCNC(=N)N)C(=O)N[C@@H](CC(=O)O)C(=O)N[C@@H](Cc1ccccc1)C(=O)N[C@H](C(=O)N[C@@H](C)C(=O)N[C@@H](Cc1c[nH]c2ccccc12)C(=O)N[C@@H](CC(C)C)C(=O)N[C@@H](CCC(=O)O)C(=O)N[C@@H](C)C(=O)NCC(=O)NCC(N)=O)C(C)C)C(=O)O` [g798] (H-HSQGTFTSDK([γGlu-Palmitoyl])SKYLDSERARDFVAWLEAGG-NH2; N-terminus assumed), the half-maximal effective concentration (EC50) turned out to be 1.51 nM on Human GIPr and 0.00907 nM on Human GLP1R.

Broadly, the EC50 is the midpoint of the concentration-response curve.
